Where two headings read alike, the source gives them in different places. Numbered stars: 1 amine (or outer) side, 2 acyl side, 3 side chain; on linkers, the order of the positions; unused ones are H or OH. Square brackets hold non-standard residues; d marks the D form. Peptide text beside a SMILES is read from it. * marks the point of attachment. dPip(4-aza,4-Cbz) = O=C(O)[C@H]1CN(C(=O)OCc2ccccc2)CCN1; X2 = O=C(OCc1ccccc1)N1CCN([*:1])[C@H](C(=O)[*:2])C1; NMeI = CC[C@H](C)[C@H](NC)C(=O)O; Pip(4-aza) = O=C(O)[C@@H]1CNCCN1; dNMeF = CN[C@H](Cc1ccccc1)C(=O)O; dPip(4-aza) = O=C(O)[C@H]1CNCCN1; Pip = O=C(O)[C@@H]1CCCCN1; dPip = O=C(O)[C@H]1CCCCN1; Orn = NCCC[C@H](N)C(=O)O; Cbz = O=C(OCc1ccccc1)*
Columns and labels:
AVP-V2 sites = biological target: T1, AVP-V2 sites (Rattus norvegicus, UniProt Q00788); experiment: [^3 H]AVP binding to crude membrane preparation of male rat kidney medulla (AVP-V2 sites)
T1 construct: male rat liver (AVP-V1 sites) or kidney medulla (AVP-V2 sites); from tissue; host or cells: male rat kidney medulla, crude membranes
T1 sequence (Q00788 whole entry): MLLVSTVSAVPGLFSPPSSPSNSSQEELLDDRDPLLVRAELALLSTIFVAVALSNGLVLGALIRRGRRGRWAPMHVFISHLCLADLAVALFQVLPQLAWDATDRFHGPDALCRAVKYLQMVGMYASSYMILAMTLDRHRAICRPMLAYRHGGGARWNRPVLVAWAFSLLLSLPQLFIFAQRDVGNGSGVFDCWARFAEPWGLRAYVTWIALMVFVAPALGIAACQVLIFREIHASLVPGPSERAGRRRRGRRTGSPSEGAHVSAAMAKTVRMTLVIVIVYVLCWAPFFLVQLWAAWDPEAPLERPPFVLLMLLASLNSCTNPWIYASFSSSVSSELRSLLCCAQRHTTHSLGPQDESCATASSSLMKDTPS
Procedure: (§1) Nonspecific binding (5-10% of the total binding) was determined using 10 μM unlabeled AVP, and the binding reaction was terminated by filtration as described above for the [^3 H]OT binding assay.

AVP-V1 sites = biological target: T2, AVP-V1 sites (Rattus norvegicus, UniProt P30560); experiment: [^3 H]AVP binding to crude membrane preparation of male rat liver (AVP-V1 sites)
T2 construct: crude membrane preparation of male rat liver (AVP-V1 sites); from tissue; host or cells: male rat liver, crude membranes
T2 sequence (P30560 whole entry): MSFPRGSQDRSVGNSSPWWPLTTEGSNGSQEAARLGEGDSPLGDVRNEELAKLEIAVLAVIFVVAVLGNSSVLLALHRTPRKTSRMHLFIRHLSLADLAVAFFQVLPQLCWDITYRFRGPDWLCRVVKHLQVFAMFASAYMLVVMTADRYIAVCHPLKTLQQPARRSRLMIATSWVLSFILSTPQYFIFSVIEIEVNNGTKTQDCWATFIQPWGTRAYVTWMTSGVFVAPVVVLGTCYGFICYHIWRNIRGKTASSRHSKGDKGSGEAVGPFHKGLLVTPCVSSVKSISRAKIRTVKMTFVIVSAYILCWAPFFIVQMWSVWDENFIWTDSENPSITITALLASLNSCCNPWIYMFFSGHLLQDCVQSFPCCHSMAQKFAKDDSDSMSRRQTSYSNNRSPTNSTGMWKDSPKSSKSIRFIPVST
Procedure: as §1

uterine OT receptors = biological target: T3, uterine OT receptors (Rattus norvegicus, UniProt P70536); experiment: [^3 H]OT binding to uterine OT receptors, crude membrane preparation of uteri from DES-treated rats; settings: for inhibition at 1 µM / inhibition at 0.1 µM: 1 h, read-out: [^3 H]OT: percent inhibition of radioligand at the given concentration; for inhibition at 1 µM: @ 1,000 (nM); for inhibition at 0.1 µM: @ 100 (nM)
T3 construct: from tissue; host or cells: uterus of DES-treated rats, crude membranes
T3 sequence (P70536 1-388): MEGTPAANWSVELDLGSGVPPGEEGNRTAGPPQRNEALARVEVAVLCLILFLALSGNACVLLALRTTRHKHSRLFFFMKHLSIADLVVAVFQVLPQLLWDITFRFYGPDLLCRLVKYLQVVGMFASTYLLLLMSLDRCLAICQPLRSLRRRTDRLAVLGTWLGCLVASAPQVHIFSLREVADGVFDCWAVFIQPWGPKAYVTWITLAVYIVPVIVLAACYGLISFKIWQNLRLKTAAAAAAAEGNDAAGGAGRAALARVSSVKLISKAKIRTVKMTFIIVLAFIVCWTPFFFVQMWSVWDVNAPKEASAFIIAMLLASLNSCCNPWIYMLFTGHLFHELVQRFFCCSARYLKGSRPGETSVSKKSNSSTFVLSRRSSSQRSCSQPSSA
Procedure: Competition studies were conducted at equilibrium (60 minutes; 22° C.) using 1 nM [^3 H]OT in the following assay buffer: 50 mM Tris-HCl, 5 mM MgCl2, and 0.1% BSA, pH 7.4.

[1] = rat kidney medulla membranes, 2 nM [^3 H]AVP, read-out: Receptor Binding Results IC50 (nM) [^3 H]-AVP-V2
[2] = Receptor Binding Results IC50 (nM) [^3 H]-AVP-V1
[3] = rat uterus membranes, 1 nM [^3 H]OT, read-out: Receptor Binding Results IC50 (nM) [^3 H]OT
[4] = Receptor Binding Results IC50 (nM) [^3 H]-AVP-V2
[5] = read-out: Receptor Binding Results IC50 (nM) [^3 H]-AVP-V1
[6] = Receptor Binding Results IC50 (nM) [^3 H]OT

Compound `CC[C@H](C)[C@@H]1NC(=O)[C@@H](Cc2ccccc2)NC(=O)[C@@H]2CCCN2C(=O)[C@@H](Cc2ccccc2)NC(=O)[C@@H]2CCCCN2C(=O)[C@H]2CNCCN2C1=O` [Example 84, c-[D-Phenylalanyl-L-isoleucinyl-D-piperazin-2-yl-L-pipecolyl-D-phenyalanyl-L-prolyl]] (cyclo(I[dPip(4-aza)][Pip][dF]P[dF])) has an IC50 (AVP-V2 sites; [1]) greater than 10000 nM, an IC50 (AVP-V1 sites; [2]) of 10000 nM and an IC50 (uterine OT receptors; [3]) greater than 1000 nM.

Work on `CC[C@H](C)[C@@H]1NC(=O)[C@@H](Cc2ccccc2)NC(=O)[C@@H]2CCCN2C(=O)[C@@H](Cc2ccccc2)N(C)C(=O)[C@H]2CN(C(=O)OCc3ccccc3)CCN2C(=O)[C@H]2CN(C(=O)OCc3ccccc3)CCN2C1=O` [Example 85, c-[Phenylalanyl-L-isoleucinyl-D-piperazin-2-yl(4-Cbz)-D-piperazin-2-yl(4-Cbz)-D-(N^α -methyl)phenylalanyl-L-prolyl]] (cyclo([dF]I[dPip(4-aza,4-Cbz)][dPip(4-aza,4-Cbz)][dNMeF]P)) yielded an IC50 (AVP-V2 sites; [1]) of 10000 nM, an IC50 (AVP-V1 sites; [2]) greater than 10000 nM and an IC50 (uterine OT receptors; [3]) of 1000 nM.

`CC[C@H](C)[C@@H]1NC(=O)[C@@H](Cc2ccccc2)NC(=O)[C@@H]2CCCN2C(=O)[C@@H](Cc2ccccc2)N(C)C(=O)[C@@H]2CN(C(=O)OCc3ccccc3)CCN2C(=O)[C@H]2CN(C(=O)OCc3ccccc3)CCN2C1=O` [Example 86, c-[D-Phenylalanyl-L-isoleucinyl-D-piperazin-2-yl(4-Cbz)-L-piperazin-2-yl(4-Cbz)-D-(N^α -methyl)phenylalanyl-L-prolyl]] (cyclo(I[dPip(4-aza,4-Cbz)][X2][dNMeF]P[dF])) gave an IC50 (AVP-V2 sites; [1]) greater than 10000 nM, an IC50 (AVP-V1 sites; [2]) greater than 10000 nM and an inhibition at 1 µM (uterine OT receptors) of 58%.

In the case of `CC[C@H](C)[C@@H]1NC(=O)[C@@H](Cc2c[nH]c3ccccc23)NC(=O)[C@@H]2CCCN2C(=O)[C@@H](Cc2ccccc2)NC(=O)[C@@H]2CNCCN2C(=O)[C@H]2CCCCN2C1=O` [Example 87, c-[D-Tryptophanyl-L-isoleucinyl-D-pipecolyl-L-piperazin-2-yl-D-phenylalanyl-L-prolyl]] (cyclo(I[dPip][Pip(4-aza)][dF]P[dW])), the IC50 (AVP-V2 sites; [4]) was greater than 1000 nM, the IC50 (AVP-V1 sites; [2]) was greater than 10000 nM and the IC50 (uterine OT receptors; [3]) was 62 nM.

For `CC[C@H](C)[C@@H]1NC(=O)[C@@H](Cc2c[nH]c3ccccc23)NC(=O)[C@@H]2CCCN2C(=O)[C@@H](Cc2c[nH]c3ccccc23)NC(=O)[C@@H]2CNCCN2C(=O)[C@H]2CCCCN2C1=O` [Example 88, c-[D-Trytophanyl-L-isoleucinyl-D-pipecolyl-L-piperazin-2-yl-D-tryptophanyl-L-prolyl]] (cyclo(I[dPip][Pip(4-aza)][dW]P[dW])), the IC50 (AVP-V2 sites; [4]) was 1000 nM, the IC50 (AVP-V1 sites; [5]) was 5780 nM and the IC50 (uterine OT receptors; [3]) was 18 nM.

For `CC[C@H](C)[C@@H]1NC(=O)[C@@H](Cc2c[nH]c3ccccc23)NC(=O)[C@@H]2CCCN2C(=O)[C@@H](Cc2ccccc2)NC(=O)[C@@H]2CN(C(=O)OCc3ccccc3)CCN2C(=O)[C@H]2CCCCN2C1=O` [Example 89, c-[D-Tryptophanyl-L-isoleucinyl-D-pipecolyl-L-piperazin-2-yl(4-Cbz)-D-phenylalanyl-L-prolyl]] (cyclo(I[dPip][X2][dF]P[dW])), the IC50 (AVP-V2 sites; [4]) was greater than 1000 nM, the IC50 (AVP-V1 sites; [2]) was greater than 10000 nM and the inhibition at 0.1 µM (uterine OT receptors) was 35%.

`CC[C@H](C)[C@@H]1NC(=O)[C@@H](Cc2c[nH]c3ccccc23)NC(=O)[C@@H]2CCCN2C(=O)[C@@H](Cc2ccccc2)NC(=O)[C@H]2CN(C(=O)OCc3ccccc3)CCN2C(=O)[C@H]2CCCCN2C1=O` [Example 90, c-[D-Tryptophanyl-L-isoleucinyl-D-pipecolyl-D-piperazin-2-yl(4-Cbz)-D-phenylalanyl-L-prolyl]] (cyclo(I[dPip][dPip(4-aza,4-Cbz)][dF]P[dW])) was tested, and the IC50 (AVP-V2 sites; [1]) was greater than 10000 nM, the IC50 (AVP-V1 sites; [2]) was greater than 10000 nM and the inhibition at 0.1 µM (uterine OT receptors) was 59%.

`CC[C@H](C)[C@@H]1NC(=O)[C@@H](Cc2c[nH]c3ccccc23)NC(=O)[C@@H]2CCCN2C(=O)[C@@H](Cc2ccccc2)N(C)C(=O)[C@H]2CN(C(=O)OCc3ccccc3)CCN2C(=O)[C@H]2CCCCN2C1=O` [Example 91, c-[D-Tryptophanyl-L-isoleucinyl-D-pipecolyl-D-piperazin-2-yl(4-Cbz)-D-(N^α -methyl)phenylalanyl-L-prolyl]] (cyclo(I[dPip][dPip(4-aza,4-Cbz)][dNMeF]P[dW])) was tested, and the IC50 (AVP-V2 sites; [4]) was greater than 1000 nM, the IC50 (AVP-V1 sites; [2]) was greater than 10000 nM and the IC50 (uterine OT receptors; [3]) was 93 nM.

For `CC[C@H](C)[C@@H]1NC(=O)[C@@H](Cc2c[nH]c3ccccc23)NC(=O)[C@@H]2CCCN2C(=O)[C@@H](Cc2ccccc2)N(C)C(=O)[C@@H]2CNCCN2C(=O)[C@H]2CCCCN2C1=O` [Example 92, c-[D-Tryptophanyl-L-isoleucinyl-D-pipecolyl-L-piperazin-2-yl-D-(N^α -methyl)phenylalanyl-L-prolyl]] (cyclo(I[dPip][Pip(4-aza)][dNMeF]P[dW])), the IC50 (AVP-V2 sites; read-out: Receptor Binding Results IC50 (nM) [^3 H]-AVP-V2) was 750 nM, the IC50 (AVP-V1 sites; [2]) was greater than 10000 nM and the IC50 (uterine OT receptors; [6]) was 7.7 nM.

Compound `CC[C@H](C)[C@@H]1NC(=O)[C@@H](Cc2c[nH]c3ccccc23)NC(=O)[C@@H]2CCCN2C(=O)[C@@H](Cc2c[nH]cn2)NC(=O)[C@H](Cc2c[nH]cn2)NC(=O)[C@H]2CCCN2C1=O` [Example 94, c-[D-Tryptophanyl-L-isoleucinyl-D-prolyl-L-histidyl-D-histidyl-L-prolyl]] (cyclo(H[dH]P[dW]I[dP])) has an IC50 (AVP-V2 sites; [1]) greater than 10000 nM, an IC50 (AVP-V1 sites; [2]) of 10000 nM and an inhibition at 1 µM (uterine OT receptors) of 64%.

With `CC[C@H](C)[C@@H]1NC(=O)[C@@H](Cc2c[nH]c3ccccc23)NC(=O)[C@@H]2CCCN2C(=O)[C@H](Cc2c[nH]cn2)NC(=O)[C@H](CCCNC(=O)OCc2ccccc2)NC(=O)[C@H]2CCCN2C1=O` [Example 95, c-[D-Tryptophanyl-L-isoleucinyl-D-prolyl-L-ornithinyl(Cbz)-D-histidyl-L-prolyl]] (cyclo([dW]I[dP][Orn](Cbz)HP)) the IC50 (AVP-V2 sites; [1]) was greater than 10000 nM, the IC50 (AVP-V1 sites; [2]) was greater than 10000 nM and the inhibition at 0.1 µM (uterine OT receptors) was 36%.

`CC[C@H](C)[C@@H]1NC(=O)[C@@H](Cc2ccccc2)NC(=O)[C@@H]2CCCN2C(=O)[C@@H](Cc2ccccc2)NC(=O)[C@H](CC(N)=O)NC(=O)[C@H]([C@@H](C)O)NC1=O` [Example 98, c-[D-Phenylalanyl-L-isoleucyl-L-threonyl-L-asparagyl-D-phenylalanyl-L-prolyl]] (cyclo(ITN[dF]P[dF])) was tested, and the IC50 (AVP-V2 sites; [1]) was greater than 10000 nM, the IC50 (AVP-V1 sites; [2]) was greater than 10000 nM and the IC50 (uterine OT receptors; [3]) was 7700 nM.

Work on `CCOc1ccc(C[C@H]2NC(=O)[C@@H]3CCCN3C(=O)[C@@H](Cc3ccccc3)NC(=O)[C@H](CC(N)=O)NC(=O)[C@@H]([C@H](C)O)NC(=O)[C@H]([C@@H](C)CC)NC2=O)cc1` [Example 99] (cyclo([dY](Et)I[dT]N[dF]P)) yielded an IC50 (AVP-V2 sites; [1]) greater than 10000 nM, an IC50 (AVP-V1 sites; [2]) greater than 10000 nM and an IC50 (uterine OT receptors; [3]) greater than 10000 nM.

`CC[C@H](C)[C@@H]1NC(=O)[C@@H](Cc2ccccc2)NC(=O)[C@@H]2CCCN2C(=O)[C@@H](Cc2ccccc2)NC(=O)[C@H](CC(N)=O)NC(=O)[C@@H](CCC(N)=O)NC1=O` [Example 102] (cyclo([dF]I[dQ]N[dF]P)) was tested, and the IC50 (AVP-V2 sites; [1]) was greater than 10000 nM, the IC50 (AVP-V1 sites; [2]) was greater than 10000 nM and the IC50 (uterine OT receptors; [3]) was greater than 10000 nM.

`CC[C@H](C)[C@@H]1NC(=O)[C@@H](Cc2ccccc2)NC(=O)[C@@H]2CCCN2C(=O)[C@@H](Cc2ccccc2)NC(=O)[C@@H]2CCCCN2C(=O)[C@H]2CCCCN2C1=O` [Example 103, c-[D-Phenylalanyl-L-isoleucyl-D-pipecolyl-L-pipecolyl-D-phenylalanyl-L-prolyl]] (cyclo(I[dPip][Pip][dF]P[dF])) gave an IC50 (AVP-V2 sites; [1]) greater than 10000 nM, an IC50 (AVP-V1 sites; [5]) of 5690 nM and an IC50 (uterine OT receptors; [3]) of 370 nM.

Work on `CC[C@H](C)[C@H]1C(=O)N2CCCC[C@@H]2C(=O)N2CCCC[C@H]2C(=O)N(C)[C@H](Cc2ccccc2)C(=O)N2CCC[C@H]2C(=O)N[C@H](Cc2ccccc2)C(=O)N1C` [Example 105, c-[D-Phenylalanyl-N-methyl-L-isoleucyl-D-pipecolyl-L-pipecolyl-N-methyl-D-phenylalanyl-L-prolyl]] (cyclo([NMeI][dPip][Pip][dNMeF]P[dF])) yielded an IC50 (AVP-V2 sites; [1]) greater than 10000 nM, an IC50 (AVP-V1 sites; [2]) greater than 10000 nM and an IC50 (uterine OT receptors; [3]) greater than 10000 nM.

In the case of `CC[C@H](C)[C@@H]1NC(=O)[C@@H](Cc2ccccc2)NC(=O)[C@@H]2CCCCN2C(=O)[C@@H](Cc2ccccc2)N(C)C(=O)[C@@H]2CCCCN2C(=O)[C@H]2CCCCN2C1=O` [Example 108, c-[D-phenylalanyl-L-isoleucyl-D-pipecolyl-L-pipecolyl-N-methyl-D-phenylalanyl-L-pipecolyl]] (cyclo(I[dPip][Pip][dNMeF][Pip][dF])), the IC50 (AVP-V2 sites; [1]) was 10000 nM, the IC50 (AVP-V1 sites; [2]) was 10000 nM and the IC50 (uterine OT receptors; [6]) was 655 nM.

— patent US5225528A, “Cyclic hexapeptide oxytocin antagonists” (priority 1990, dated 1993)
